Source: patent US9150589B2, “Polymorphous forms III and IV of N-benzoyl—staurosporine” (NOVARTIS AG, priority 2009, dated 2015)

Assay: Thermal decomposition on heating under nitrogen atmosphere
Type: physicochemical
Conditions: heating rate of 20K/min under nitrogen atmosphere
Description: The crystalline form III decomposes above 270° C., when heated with a heating rate of 20K/min under nitrogen atmosphere.
The crystalline form IV decomposes at about 270° C. when heated at 20K/min under nitrogen atmosphere.

| decomposition temperature | SMILES |
| --- | --- |
| above 270 °C | CO[C@@H]1[C@H](N(C)C(=O)c2ccccc2)C[C@H]2O[C@]1(C)n1c3ccccc3c3c4c(c5c6ccccc6n2c5c31)C(=O)NC4 [crystalline form III, N-[(9S,10R,11R,13R)-2,3,10,11,12,13-hexahydro-10-methoxy-9-methyl-1-oxo-9,13-epoxy-1H,9H-diindolo[1,2,3-gh:3′,2′,1′-lm]pyrrolo[3,4-j][1,7]benzodiazonin-11-yl]-N-methylbenzamide] |
| about 270 °C | CO[C@@H]1[C@H](N(C)C(=O)c2ccccc2)C[C@H]2O[C@]1(C)n1c3ccccc3c3c4c(c5c6ccccc6n2c5c31)C(=O)NC4 [crystalline form IV, N-[(9S,10R,11R,13R)-2,3,10,11,12,13-hexahydro-10-methoxy-9-methyl-1-oxo-9,13-epoxy-1H,9H-diindolo[1,2,3-gh:3′,2′,1′-lm]pyrrolo[3,4-j][1,7]benzodiazonin-11-yl]-N-methylbenzamide] |
